# Experimental data: the OligoGym collection
# Oligonucleotides are written 5' to 3', each unit as a sugar letter and its base; * is a phosphorothioate linkage, no mark a phosphodiester; rarer units and linkages stand in square brackets, end groups in braces. Plain capitals give the bases only. d = 2'-deoxy (DNA); r = 2'-OH (RNA)
# Target: NOG
# Assay: reporter assay of Huesken 2005
# Details: siRNA
# Note: test concentration or dose not given here.
row,Substance,normalised inhibition (eCFP-eYFP dual reporter)
1,sense rGrArUrGrUrGrGrCrUrGrUrGrGrUrCrGrCrArGdTdT / antisense rCrUrGrCrGrArCrCrArCrArGrCrCrArCrArUrCdTdG,81.7%
2,sense rGrCrArGrCrCrGrCrUrUrUrUrGrGrCrCrGrCrGdTdT / antisense rCrGrCrGrGrCrCrArArArArGrCrGrGrCrUrGrCdCdC,46.4%
3,sense rGrCrArGrCrUrGrCrUrUrCrArGrUrArArGrCrGdTdT / antisense rCrGrCrUrUrArCrUrGrArArGrCrArGrCrUrGrCdCdC,63.1%
4,sense rGrCrCrCrGrGrCrArCrCrCrArGrCrGrArCrArAdTdT / antisense rUrUrGrUrCrGrCrUrGrGrGrUrGrCrCrGrGrGrCdGdG,88.4%
5,sense rGrCrCrGrGrCrGrGrCrCrArGrCrArCrUrArUrCdTdT / antisense rGrArUrArGrUrGrCrUrGrGrCrCrGrCrCrGrGrCdCdG,82.2%
6,sense rGrCrCrGrUrCrCrArArGrUrCrCrGrUrGrCrArCdTdT / antisense rGrUrGrCrArCrGrGrArCrUrUrGrGrArCrGrGrCdTdT,66.1%
7,sense rGrCrCrUrArArGrCrArArGrArArGrCrUrGrCrGdTdT / antisense rCrGrCrArGrCrUrUrCrUrUrGrCrUrUrArGrGrCdGdC,85.7%
8,sense rGrCrGrArGrArUrCrArArArGrGrGrCrUrArGrAdTdT / antisense rUrCrUrArGrCrCrCrUrUrUrGrArUrCrUrCrGrCdTdC,96.7%
9,sense rGrCrGrGrCrArGrCrGrGrCrCrGrUrCrGrGrGrGdTdT / antisense rCrCrCrCrGrArCrGrGrCrCrGrCrUrGrCrCrGrCdAdG,70.5%
10,sense rGrCrUrGrCrGrCrUrCrGrCrUrGrCrUrCrGrGrGdTdT / antisense rCrCrCrGrArGrCrArGrCrGrArGrCrGrCrArGrCdAdG,67.1%
11,sense rGrCrUrGrCrGrGrUrGrGrCrGrCrUrGrUrCrArGdTdT / antisense rCrUrGrArCrArGrCrGrCrCrArCrCrGrCrArGrCdAdC,80.5%
12,sense rGrCrUrGrCrUrGrCrGrCrUrCrGrCrUrGrCrUrCdTdT / antisense rGrArGrCrArGrCrGrArGrCrGrCrArGrCrArGrCdGdT,78.8%
13,sense rGrCrUrUrCrArGrUrArArGrCrGrCrUrCrGrUrGdTdT / antisense rCrArCrGrArGrCrGrCrUrUrArCrUrGrArArGrCdAdG,84.7%
14,sense rGrGrArArCrGrArCrCrUrGrGrGrCrArGrCrCrGdTdT / antisense rCrGrGrCrUrGrCrCrCrArGrGrUrCrGrUrUrCrCdAdC,51.5%
15,sense rGrGrCrArArGrArArGrCrArGrCrGrCrCrUrArAdTdT / antisense rUrUrArGrGrCrGrCrUrGrCrUrUrCrUrUrGrCrCdCdT,91.3%
16,sense rGrGrCrArUrGrGrUrGrUrGrCrArArGrCrCrGrUdTdT / antisense rArCrGrGrCrUrUrGrCrArCrArCrCrArUrGrCrCdCdT,79.1%

row,Substance,normalised inhibition (eCFP-eYFP dual reporter)
1,sense rGrGrCrGrGrCrCrArGrCrArCrUrArUrCrUrCrCdTdT / antisense rGrGrArGrArUrArGrUrGrCrUrGrGrCrCrGrCrCdGdG,87.4%
2,sense rGrGrCrUrUrCrArUrGrGrCrCrArCrCrUrCrGrCdTdT / antisense rGrCrGrArGrGrUrGrGrCrCrArUrGrArArGrCrCdTdG,64.6%
3,sense rGrGrGrCrArArGrArArGrCrArGrCrGrCrCrUrAdTdT / antisense rUrArGrGrCrGrCrUrGrCrUrUrCrUrUrGrCrCrCdTdG,93.3%
4,sense rGrUrCrCrArArGrUrCrCrGrUrGrCrArCrCrUrCdTdT / antisense rGrArGrGrUrGrCrArCrGrGrArCrUrUrGrGrArCdGdG,55.7%
5,sense rGrUrGrCrArArGrCrCrGrUrCrCrArArGrUrCrCdTdT / antisense rGrGrArCrUrUrGrGrArCrGrGrCrUrUrGrCrArCdAdC,75.4%
6,sense rGrUrGrGrCrUrGrUrGrGrUrCrGrCrArGrArCrAdTdT / antisense rUrGrUrCrUrGrCrGrArCrCrArCrArGrCrCrArCdAdT,83.3%
7,sense rUrArCrGrCrGrUrGrGrArArCrGrArCrCrUrGrGdTdT / antisense rCrCrArGrGrUrCrGrUrUrCrCrArCrGrCrGrUrAdCdA,51.8%
8,sense rUrCrArUrCrGrArArCrArCrCrCrArGrArCrCrCdTdT / antisense rGrGrGrUrCrUrGrGrGrUrGrUrUrCrGrArUrGrAdGdG,67.8%
9,sense rUrCrCrGrCrCrCrGrGrCrArCrCrCrArGrCrGrAdTdT / antisense rUrCrGrCrUrGrGrGrUrGrCrCrGrGrGrCrGrGrAdTdG,72%
10,sense rUrCrGrCrArGrArCrArUrUrCrUrGrCrCrCrCrGdTdT / antisense rCrGrGrGrGrCrArGrArArUrGrUrCrUrGrCrGrAdCdC,47.6%
11,sense rUrCrUrGrCrCrCrCrGrUrGrCrUrGrUrArCrGrCdTdT / antisense rGrCrGrUrArCrArGrCrArCrGrGrGrGrCrArGrAdAdT,61%
12,sense rUrGrCrUrGrUrArCrGrCrGrUrGrGrArArCrGrAdTdT / antisense rUrCrGrUrUrCrCrArCrGrCrGrUrArCrArGrCrAdCdG,85.2%
13,sense rUrGrGrUrCrGrCrArGrArCrArUrUrCrUrGrCrCdTdT / antisense rGrGrCrArGrArArUrGrUrCrUrGrCrGrArCrCrAdCdA,40.5%
14,sense rUrGrGrUrGrGrArCrCrUrCrArUrCrGrArArCrAdTdT / antisense rUrGrUrUrCrGrArUrGrArGrGrUrCrCrArCrCrAdGdG,96.4%
15,sense rUrGrUrGrGrUrCrGrCrArGrArCrArUrUrCrUrGdTdT / antisense rCrArGrArArUrGrUrCrUrGrCrGrArCrCrArCrAdGdC,57.5%
16,sense rUrUrGrGrCrCrCrArGrGrGrCrArArGrArArGrCdTdT / antisense rGrCrUrUrCrUrUrGrCrCrCrUrGrGrGrCrCrArAdGdC,41.1%

# Target: UFC1
# Assay: reporter assay of Huesken 2005
# Details: siRNA
row,Substance,normalised inhibition (eCFP-eYFP dual reporter)
1,sense rArArArUrCrCrCrUrGrArUrCrUrGrArUrUrCrAdTdT / antisense rUrGrArArUrCrArGrArUrCrArGrGrGrArUrUrUdCdC,81%
2,sense rArArCrArArGrArArUrGrCrUrGrArCrArArCrGdTdT / antisense rCrGrUrUrGrUrCrArGrCrArUrUrCrUrUrGrUrUdGdT,43.3%
3,sense rArArGrArCrArGrCrArArArGrArUrGrUrArCrAdTdT / antisense rUrGrUrArCrArUrCrUrUrUrGrCrUrGrUrCrUrUdTdC,113%
4,sense rArArGrArUrGrUrArCrArGrGrGrGrUrGrGrCrAdTdT / antisense rUrGrCrCrArCrCrCrCrUrGrUrArCrArUrCrUrUdTdG,62.3%
5,sense rArArGrGrArArCrUrCrGrGrUrGrGrUrUrUrGrGdTdT / antisense rCrCrArArArCrCrArCrCrGrArGrUrUrCrCrUrUdCdC,32.2%
6,sense rArCrArArCrArArGrArArUrGrCrUrGrArCrArAdTdT / antisense rUrUrGrUrCrArGrCrArUrUrCrUrUrGrUrUrGrUdTdC,86.4%
7,sense rArCrCrUrCrCrUrGrArArArUrArUrGrArGrUrUdTdT / antisense rArArCrUrCrArUrArUrUrUrCrArGrGrArGrGrUdCdA,43.5%
8,sense rArCrCrUrUrUrGrUrGrGrGrCrCrArGrGrArArUdTdT / antisense rArUrUrCrCrUrGrGrCrCrCrArCrArArArGrGrUdTdT,56.9%
9,sense rArCrGrGrArUrCrArUrUrUrCrArArArCrCrUrUdTdT / antisense rArArGrGrUrUrUrGrArArArUrGrArUrCrCrGrUdCdA,106%
10,sense rArCrUrArGrCrUrCrArUrCrUrCrArUrGrGrCrUdTdT / antisense rArGrCrCrArUrGrArGrArUrGrArGrCrUrArGrUdCdC,53.8%
11,sense rArCrUrGrArArGrGrArGrGrArArUrArUrCrArGdTdT / antisense rCrUrGrArUrArUrUrCrCrUrCrCrUrUrCrArGrUdCdG,75.2%
12,sense rArGrCrGrArCrUrGrArArGrGrArGrGrArArUrAdTdT / antisense rUrArUrUrCrCrUrCrCrUrUrCrArGrUrCrGrCrUdGdC,93.1%
13,sense rArGrGrArArGrGrArArCrUrCrGrGrUrGrGrUrUdTdT / antisense rArArCrCrArCrCrGrArGrUrUrCrCrUrUrCrCrUdTdG,61.8%
14,sense rArGrGrGrCrGrUrCrArUrCrCrArArCrArCrArAdTdT / antisense rUrUrGrUrGrUrUrGrGrArUrGrArCrGrCrCrCrUdTdC,107%
15,sense rArGrUrCrCrArArCrArArGrGrArArGrGrArArCdTdT / antisense rGrUrUrCrCrUrUrCrCrUrUrGrUrUrGrGrArCrUdCdC,83.5%
16,sense rArGrUrCrCrCrUrUrArUrCrCrGrGrUrArUrGrUdTdT / antisense rArCrArUrArCrCrGrGrArUrArArGrGrGrArCrUdGdA,74.6%
17,sense rArGrUrUrGrUrGrGrGrUrGrCrArGrCrGrArCrUdTdT / antisense rArGrUrCrGrCrUrGrCrArCrCrCrArCrArArCrUdCdA,80.4%
18,sense rArGrUrUrUrGrArCrArUrCrGrArGrUrUrUrGrAdTdT / antisense rUrCrArArArCrUrCrGrArUrGrUrCrArArArCrUdCdA,122%
19,sense rArUrArUrCrCrUrArCrUrArCrUrGrCrCrCrCrAdTdT / antisense rUrGrGrGrGrCrArGrUrArGrUrArGrGrArUrArUdGdT,78.2%
20,sense rArUrCrArCrArUrArUrCrCrUrArCrUrArCrUrGdTdT / antisense rCrArGrUrArGrUrArGrGrArUrArUrGrUrGrArUdAdG,69.2%
